Reference: patent US20120015906A1, “USES OF BORTEZOMIB IN PREDICTING SURVIVAL IN MULTIPLE MYELOMA PATIENTS” (priority 2009, published 2012)

Assays:
Format in all cases: in vivo, human
[1] = test system: CD138-purified plasma cells; assay: Gene expression profiling of plasma cells prior to and 48 hr after bortezomib test-dose; settings: for Mean log2 Expression Change / Mean log2 Expression Change, Average: 48 hr after test-dose vs baseline
Procedure: Pharmacogenomic (PG) studies were performed as part of two TT3 trials (2003-33, n=303; 2006-66, n=177), obtaining plasma cells prior to and 48 hr after a bortezomib test-dose (1.0 mg/m2), which was accomplished in 142 patients receiving 2003-33 (training set) and […] receiving 2006-66 (test set). […] A continuous risk score was calculated and an optimal cut-point for event-free survival separation determined. The independent prognostic power of the binary risk score was tested in 2006-66. Multivariate analyses (MV) were employed to determine the role of post-bortezomib risk in relationship to standard prognostic variables and 70-gene baseline risk model.
The details of Total Therapy 3 are known in the art. In brief, protocol 2003-33 enrolled 303 newly diagnosed patients with myeloma into a tandem transplantation program, employing 2 cycles each of induction chemotherapy with VTD-PACE (bortezomib, thalidomide, dexamethasone; 4-day continuous infusions of cisplatin, doxorubicine, cyclophosphamide, etoposide) prior to and after melphalan-based transplantation, followed by VTD maintenance. A pharmaco-genomic aspect of the protocol called for gene expression profiling analyses of CD138-purified plasma cells obtained prior to and 48 hr following a test-dose application of bortezomib (1.0 mg/m2). The observation of prognostic consequences of bortezomib-induced gene expression profiling alterations provided the rationale for accrual of an additional 177 patients to an extension TT3 protocol, 2006-66, in order to validate the pharmaco-genomic data generated in the 2003-33 trial. Gene expression profiling baseline data were available in 275 and 169 patients entered on 2003-33 and 2006-66, respectively, 142 and 128 of whom had paired samples at baseline and 48 hr after test-dosing.
Multiple myeloma plasma cells were purified from bone marrow aspirates prior to and 48 hr following in vivo exposure to 1.0 mg/m2 of bortezomib in 142 of 303 patients enrolled in UARK2003-33 and 128 of 177 accrued to UARK2006-66. RNA was isolated from tumor cells and run on Affymetrix U133Plus2.0 microarrays. Multiple myeloma plasma cells were isolated from heparinized bone marrow (BM) aspirates using CD138-based immunomagnetic bead selection using the Miltenyi AutoMacs device (Miltenyi, Bergisch Gladbach, Germany). Peripheral Blood mononuclear cells were obtained through Ficoll gradient centrifugation. RNA purification, cDNA synthesis, cRNA preparation, and hybridization to the Human Genome U133Plus 2.0 GeneChip microarrays (Affymetrix, Santa Clara, Calif.) were performed.
The Affymetrix U133Plus2.0 microarrays were preprocessed and normalized with MAS5.0 software. […] Each of these 1051 genes was then correlated with event-free survival in a Cox regression model and ranked the genes by p-values. In order to explore the various potential survival implications, two sets of covariates were considered in the Cox model for each gene: a) percent change at 48 hr compared to the baseline expression, and b) 48 hr expression.

proteasome proteins = assay: Mass spectrometry of proteasome proteins after bortezomib; settings: mass spectroscopy, protein level
Excerpt: Representative examples of proteasome up-regulation after bortezomib at both the RNA and protein levels are depicted.
For further validation of GEP-derived data, the effects of bortezomib on proteasome proteins was also investigated by mass spectroscopy, (FIG. 8A). Representative examples of proteasome up-regulation after bortezomib at both the RNA and protein levels are depicted in FIG. 8A-8B.

proteasome genes = assay: Proteasome gene expression changes after short-term exposure (test-dosing) to bortezomib, dexamethasone, thalidomide, melphalan; settings: test-dosing in myeloma patients
Excerpt: In earlier studies, pharmacogenomics was used to identify genes altered by short-term exposure of therapy-naïve cases to thalidomide and dexamethasone. Little to no overlap was found in the genes altered by these agents with those altered by bortezomib.

Compound: CC(C)C[C@H](NC(=O)[C@H](Cc1ccccc1)NC(=O)c1cnccn1)B(O)O [bortezomib]
- Mean log2 Expression Change ([1]; ACVR1C 1552519_at): −0.17
- Mean log2 Expression Change ([1]; ALDOA 238996_x_at): 0.36
- Mean log2 Expression Change ([1]; ANKRD37 242548_x_at): −0.39
- Mean log2 Expression Change ([1]; BIRC5 210334_x_at): −0.35
- Mean log2 Expression Change ([1]; C1orf31 225638_at): 0.18
- Mean log2 Expression Change ([1]; C1orf128 229856_s_at): −0.32
- Mean log2 Expression Change ([1]; C9orf130 227893_at): 0.16
- Mean log2 Expression Change ([1]; C14orf100 223215_s_at): 0.12
- Mean log2 Expression Change ([1]; C17orf60 217513_at): 0.32
- Mean log2 Expression Change ([1]; CHORDC1 218566_s_at): 0.15
- Mean log2 Expression Change ([1]; CISH 221223_x_at): −0.20
- Mean log2 Expression Change ([1]; CISH 223377_x_at): −0.18
- Mean log2 Expression Change ([1]; CISH 223961_s_at): −0.32
- Mean log2 Expression Change ([1]; COMMD8 218351_at): 0.16
- Mean log2 Expression Change ([1]; COPS5 201652_at): 0.12
- Mean log2 Expression Change ([1]; COX6C 201754_at): 0.12
- Mean log2 Expression Change ([1]; CRYGS 223643_at): −0.18
- Mean log2 Expression Change ([1]; ENSA 202596_at): 0.12
- Mean log2 Expression Change ([1]; FLNA 214752_x_at): 0.18
- Mean log2 Expression Change ([1]; FOSB 202768_at): −0.54
- Mean log2 Expression Change ([1]; FUNDC1 235346_at): 0.13
- Mean log2 Expression Change ([1]; GABARAPL1 208869_s_at): 0.20
- Mean log2 Expression Change ([1]; HIST1H3B 208576_s_at): 0.40
- Mean log2 Expression Change ([1]; HNRPC 200014_s_at): 0.11
- Mean log2 Expression Change ([1]; HNRPC 212626_x_at): 0.16
- Mean log2 Expression Change ([1]; K1AA1394 228984_at): −0.29
- Mean log2 Expression Change ([1]; K1AA1754 225582_at): −0.14
- Mean log2 Expression Change ([1]; KLHL7 223250_at): 0.09
- Mean log2 Expression Change ([1]; LAP3 217933_s_at): 0.15
- Mean log2 Expression Change ([1]; LAPTM4A 200673_at): 0.12
- Mean log2 Expression Change ([1]; LOC400657 226924_at): 0.11
- Mean log2 Expression Change ([1]; LOC643318 1557633_at): −0.29
- Mean log2 Expression Change ([1]; LOC644250 230292_at): −0.34
- Mean log2 Expression Change ([1]; LZTR2 1564423_a_at): −0.23
- Mean log2 Expression Change ([1]; MGC61598 226499_at): −0.29
- Mean log2 Expression Change ([1]; MRPL47 223480_s_at): 0.09
- Mean log2 Expression Change ([1]; NMT1 201157_s_at): 0.12
- Mean log2 Expression Change ([1]; NOLA1 219110_at): 0.11
- Mean log2 Expression Change ([1]; NR4A1 202340_x_at): −0.79
- Mean log2 Expression Change ([1]; NXT2 209628_at): 0.13
- Mean log2 Expression Change ([1]; PDE4B 203708_at): −0.25
- Mean log2 Expression Change ([1]; PDE4B 211302_s_at): −0.28
- Mean log2 Expression Change ([1]; PDE4B 215671_at): −0.42
- Mean log2 Expression Change ([1]; PSMA4 203396_at): 0.14
- Mean log2 Expression Change ([1]; PSMA7 201114_x_at): 0.21
- Mean log2 Expression Change ([1]; PSMB2 200039_s_at): 0.17
- Mean log2 Expression Change ([1]; PSMB3 201400_at): 0.13
- Mean log2 Expression Change ([1]; PSMB4 202243_s_at): 0.19
- Mean log2 Expression Change ([1]; PSMB4 202244_at): 0.15
- Mean log2 Expression Change ([1]; PSMB7 200786_at): 0.15
- Mean log2 Expression Change ([1]; PSMC4 201252_at): 0.16
- Mean log2 Expression Change ([1]; PSMC5 209503_s_at): 0.17
- Mean log2 Expression Change ([1]; PSMD2 200830_at): 0.13
- Mean log2 Expression Change ([1]; PSMD4 200882_s_at): 0.19
- Mean log2 Expression Change ([1]; PSMD4 210460_s_at): 0.19
- Mean log2 Expression Change ([1]; PSMD4 211609_x_at): 0.20
- Mean log2 Expression Change ([1]; PSMD14 212296_at): 0.23
- Mean log2 Expression Change ([1]; RBM33 238801_at): −0.26
- Mean log2 Expression Change ([1]; RPL41 216215_s_at): −0.16
- Mean log2 Expression Change ([1]; SLC25A14 204587_at): −0.10
- Mean log2 Expression Change ([1]; SNRPD1 202690_s_at): 0.11
- Mean log2 Expression Change ([1]; STAU2 229417_at): 0.22
- Mean log2 Expression Change ([1]; STAU2 233909_at): −0.40
- Mean log2 Expression Change ([1]; STX11 235670_at): −0.14
- Mean log2 Expression Change ([1]; SUMO1 211069_s_at): 0.10
- Mean log2 Expression Change ([1]; TAGAP 1552542_s_at): −0.19
- Mean log2 Expression Change ([1]; TBC1D9 212960_at): −0.19
- Mean log2 Expression Change ([1]; TMC8 236554_x_at): 0.24
- Mean log2 Expression Change ([1]; TUBA6 209251_x_at): 0.12
- Mean log2 Expression Change ([1]; UBPH 205687_at): 0.16
- Mean log2 Expression Change ([1]; WIRE 212050_at): −0.10
- Mean log2 Expression Change ([1]; ZNF710 213658_at): −0.12
- Mean log2 Expression Change, Average ([1]; average of the Bad Genes): 0.13
- Mean log2 Expression Change, Average ([1]; average of the Good Genes): −0.16
- average expression decrease of the good genes from baseline to post-bortezomib ([1]; high-risk group): 1.22 fold
- average expression increase of the bad genes from baseline to post-bortezomib ([1]; high-risk group): 1.21 fold
- average expression decrease of the good genes from baseline to post-bortezomib ([1]; low-risk group): 1.09 fold
- average expression increase of the bad genes from baseline to post-bortezomib ([1]; low-risk group): 1.07 fold
- Mean log2 Expression Change ([1]; probeset 226399_at (no gene symbol)): 0.09
- Mean log2 Expression Change ([1]; probeset 227524_at (no gene symbol)): −0.17
- Mean log2 Expression Change ([1]; probeset 229388_at (no gene symbol)): 0.22
- Mean log2 Expression Change ([1]; probeset 236986_at (no gene symbol)): −0.13
- Mean log2 Expression Change ([1]; probeset 239082_at (no gene symbol)): −0.11
- Mean log2 Expression Change ([1]; probeset 239343_at (chr12q23.3, no gene symbol)): 0.19
- Mean log2 Expression Change ([1]; probeset 1561060_at (no gene symbol)): −0.27
- proteasome proteins after bortezomib (proteasome proteins): up-regulation
- proteasome gene expression change after short-term exposure (proteasome genes): hyper-activation of proteasome genes
